Laboratory results taken from patent publication US11390621B2, “Chiral indole compounds and their use” (ARIAGEN, INC., priority 2019, dated 2022).

Columns and labels:
Type in all cases: in vivo
[1] = tested on: 4T-1; experiment: 4T-1 syngeneic mouse tumor model, ARI-164 / anti-PD-1 / combination (Example 49); conditions: 4T-1 model
Description: (§1) In this example, the in vivo anti-tumor efficacy of a combination of ARI-164 with an anti-PD-1 antibody was evaluated using a panel of seven subcutaneous syngeneic mouse tumor models.
(§2) Seven subcutaneous syngeneic mouse tumor models were generated by innoculating female BALB/C or C57BL/6 mice with cancer cells at their right lower or right front flank followed by randomization as detailed in Table 10 below.
(§3) A solution of a rat monoclonal anti-mouse PD-1 antibody (isotype IgG2a, κ) at a concentration of 6.61 mg/ml was obtained from BioXcell (InVivoMAb anti-mouse PD-1 (CD279), Clone RMP1-14, Cat #BE0146)) and store at 4° C. The antibody solution was diluted with PBS to obtain a 1 mg/ml dosing solution.
(§4) ARI-164 powder was stored at −20° C. The powder of the compound was dissolved in DMSO to obtain dosing solutions at 26.7 mg/ml for administration to mice at 40 mg/kg, respectively.
Seven studies using the seven subcutaneous syngeneic mouse tumor models were performed. In each study, 80 mice were enrolled and randomly allocated to eight different study groups, with 10 mice in each study group. The mean tumor size at randomization was approximately 80-120 mm^3 (around 100 mm^3). Randomization was performed based on “Matched distribution” randomization method (StudyDirector™ software, version 3.1.399.19). […] All the drugs and vehicle controls were injected to the mice intraperitoneally.
(§5) The data was collected and analyzed as described above in Example 48.

[2] = tested on: EMT-6; experiment: EMT-6 syngeneic mouse tumor model, ARI-164 / anti-PD-1 / combination (Example 49); conditions: EMT-6 model
Description: as §1, §2, §3, §4
(§6) Seven studies using the seven subcutaneous syngeneic mouse tumor models were performed. In each study, 80 mice were enrolled and randomly allocated to eight different study groups, with 10 mice in each study group. The mean tumor size at randomization was approximately 80-120 mm^3 (around 100 mm^3). Randomization was performed based on “Matched distribution” randomization method (StudyDirector™ software, version 3.1.399.19). […]
as §5

[3] = tested on: Pan02; experiment: Pan02 syngeneic mouse tumor model, ARI-164 / anti-PD-1 / combination (Example 49)
Description: as §1, §2, §3, §4, §6, §5

[4] = tested on: H22; experiment: H22 syngeneic mouse tumor model, ARI-164 / anti-PD-1 / combination (Example 49)
Description: as §1, §2, §3, §4, §6, §5

[5] = tested on: LL/2; experiment: LL/2 syngeneic mouse tumor model, ARI-164 / anti-PD-1 / combination (Example 49)
Description: as §1, §2, §3, §4, §6, §5

[6] = intraperitoneal, anti-PD-1 10 mg/kg BIW, ARI-164 40 mg/kg QD

CC[C@H](O)c1csc(C(=O)c2c[nH]c3cc(F)ccc23)n1 [ARI-164, (S)-(6-Fluoro-1H-indol-3-yl)(4-(1-hydroxypropyl)thiazol-2-yl)methanone]
effect on tumor growth (in words) ([1]; ARI-164 alone, 40 mg/kg i.p.): delay tumor growth | tumor growth inhibition (in words) ([1]; combination with anti-PD-1 antibody, study day 31): statistically significant delta in tumor growth inhibition | TGI (%) [1, 6]: 45.3% | tumor inhibition (in words) ([2]; combination with anti-PD-1 antibody, study day 30): significant tumor inhibition | TGI (%) [2, 6]: 57.2% | tumor inhibition (in words) ([3]; combination with anti-PD-1 antibody, study day 55): increased tumor inhibition | TGI (%) [3, 6]: 61.1% | tumor inhibition (in words) ([4]; combination with anti-PD-1 antibody, study day 24): significant tumor inhibition | TGI (%) [4, 6]: 46.9% | tumor inhibition (in words) ([5]; LL/2 model (FIG. 21F), combination with anti-PD-1 antibody, study day 32): tumor inhibition | TGI (%) ([5]; LL/2 model, intraperitoneal, anti-PD-1 10 mg/kg BIW, ARI-164 40 mg/kg QD): 42.5%
